Experimental data from publication PMC4538566 (Journal of Medicinal Chemistry, 2015).

Key:
In situ rat perfusion = format: in vivo; conditions: 100 μM; for Ka1 absorption rate coefficient: six independent experiments
[1] = Caco-2 cell monolayers transport assay; format: in vitro ADME; conditions: human, Caco-2
leukemia Jurkat-T = format: cell-based, human; conditions: read-out: IC50 Jurkat; 24 h incubation, MTT, mean ± SD (n = 4)
lung A549 = format: cell-based, human; conditions: read-out: IC50 A549; 24 h incubation, MTT, mean ± SD (n = 4)
prostate DU-145 = format: cell-based, human; conditions: read-out: IC50 DU-145; 24 h incubation, MTT, mean ± SD (n = 4)
pancreas MiaPaca2 = format: cell-based, human; conditions: read-out: IC50 MiaPaca2; 24 h incubation, MTT, mean ± SD (n = 4)
[2] = test system: triple-negative breast MDA-MB-231; format: cell-based, human; conditions: read-out: IC50 MDA-MB-231; 24 h incubation, MTT, mean ± SD (n = 4)
[3] = test system: non-tumorigenic human embryonic kidney cells HEK293T; format: cell-based; conditions: read-out: IC50 HEK-293T; 24 h incubation, MTT, mean ± SD (n = 4)
plasmid (pBR322) DNA = test: Electrophoresis mobility shift assay with plasmid DNA; format: binding; conditions: 37 °C, 20 h, metal/DNAbp ratios 0.25–2.0
Caco-2 monolayers = test: Caco-2 cell monolayers transport assay; format: in vitro ADME; conditions: Caco-2 monolayers, 20 μM, three independent experiments

Q: For `CC(C)NCC(O)COc1ccc(CC(N)=O)cc1` (stereo not drawn) [atenolol], which Peff (In situ rat perfusion) is on record?
A: 5.19 × 10^–6 cm/s

Q: With `CN/C(=N/CCSCc1nc[nH]c1C)NC#N` [cimetidine] as the compound, how does the Papp at 90 min, 20 μM [1] read?
A: 1.86 ×10⁻⁶ cm/s

Q: What about the Peff (In situ rat perfusion) of the same compound?
A: 3.97 × 10^–5 cm/s

Q: What about the “Ka1 absorption rate coefficient” value (In situ rat perfusion) of the same compound?
A: 1.68 h^–1

Q: What does the source list for `N.N.[Cl][Pt][Cl]` [cisplatin]?
A: IC50 (leukemia Jurkat-T): 10.8 ± 1.2 µM; IC50 (lung A549): 114 ± 9.1 µM; IC50 (prostate DU-145): 112 ± 33 µM; IC50 (pancreas MiaPaca2): 76.5 ± 7.4 µM; IC50 [2]: 131 ± 18 µM; IC50 [3]: 69 ± 6.7 µM; effect on electrophoretic mobility of plasmid forms (plasmid (pBR322) DNA): able to both increase and decrease the mobility of the OC and the CCC forms

Q: For `COCCc1ccc(OCC(O)CNC(C)C)cc1` (stereo not drawn) [metoprolol], which Papp at 90 min, 20 μM [1] is on record?
A: 23.2 ×10⁻⁶ cm/s

Q: What about the Peff (In situ rat perfusion) of the same compound?
A: 5.40 × 10^–5 cm/s

Q: What about the “Ka1 absorption rate coefficient” value (In situ rat perfusion) of the same compound?
A: 2.30 h^–1

Q: With Lucifer Yellow as the compound, how does the Peff (Caco-2 monolayers) read?
A: 1.90 × 10^–7 cm/s
